Where “and” joins values, the source holds several entries; their conditions need not be identical. Equal entries are not always repeated. Inconclusive results and toxic doses are left out. Rule as the data show it: active = T/C of 150% or more; inactive = T/C below 125%.
Test system: L1210 leukemia ip in BDF1 mice, survival T/C
Experiment: NCI In Vivo Anticancer Drug Screen. Data for tumor model L1210 Leukemia (intraperitoneal) in B6D2F1 (BDF1) mice
Conditions: endpoint: mean survival time, higher = longer survival
Method in brief: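 Tumor was transplanted into mice, which were then dosed with test compound or vehicle alone. Survival was recorded for each group, and the treated figure was expressed relative to the control figure.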

[1] = dose: 100.0 mg/kg/injection, schedule: Q04DX003 (ip), vehicle: Klucel (hydroxypropylcellulose) (HPC)
[2] = dose: 200.0 mg/kg/injection, schedule: Q04DX003 (ip), vehicle: Klucel (hydroxypropylcellulose) (HPC)
[3] = dose: 400.0 mg/kg/injection, schedule: Q04DX003 (ip), vehicle: Klucel (hydroxypropylcellulose) (HPC)
[4] = dose: 25.0 mg/kg/injection, schedule: Q04DX003 (ip), vehicle: Klucel (hydroxypropylcellulose) (HPC)
[5] = dose: 50.0 mg/kg/injection, schedule: Q04DX003 (ip), vehicle: Klucel (hydroxypropylcellulose) (HPC)
[6] = dose: 100.0 mg/kg/injection, schedule: Q01DX001 (ip), vehicle: acetone
[7] = dose: 100.0 mg/kg/injection, schedule: Q04DX003 (ip), vehicle: saline
[8] = dose: 200.0 mg/kg/injection, schedule: Q01DX001 (ip), vehicle: acetone
[9] = dose: 200.0 mg/kg/injection, schedule: Q04DX003 (ip), vehicle: saline
[10] = dose: 400.0 mg/kg/injection, schedule: Q01DX001 (ip), vehicle: acetone
[11] = dose: 400.0 mg/kg/injection, schedule: Q04DX003 (ip), vehicle: saline
[12] = dose: 100.0 mg/kg/injection, schedule: Q01DX009 (ip), vehicle: Klucel (hydroxypropylcellulose) (HPC)
[13] = dose: 200.0 mg/kg/injection, schedule: Q01DX009 (ip), vehicle: Klucel (hydroxypropylcellulose) (HPC)
[14] = dose: 400.0 mg/kg/injection, schedule: Q01DX009 (ip), vehicle: Klucel (hydroxypropylcellulose) (HPC)
[15] = dose: 12.5 mg/kg/injection, schedule: Q01DX009 (ip), vehicle: Klucel (hydroxypropylcellulose) (HPC)
[16] = dose: 25.0 mg/kg/injection, schedule: Q01DX009 (ip), vehicle: Klucel (hydroxypropylcellulose) (HPC)
[17] = dose: 50.0 mg/kg/injection, schedule: Q01DX009 (ip), vehicle: Klucel (hydroxypropylcellulose) (HPC)
[18] = dose: 100.0 mg/kg/injection, schedule: Q01DX001 (ip), vehicle: saline
[19] = dose: 200.0 mg/kg/injection, schedule: Q01DX001 (ip), vehicle: saline
[20] = dose: 400.0 mg/kg/injection, schedule: Q01DX001 (ip), vehicle: saline

Measured: T/C

Cc1cc([N+](=O)[O-])ccc1S(N)(=O)=O
inactive: [1] 105 % of control | [2] 105 % of control | [3] 109 % of control

O=C1c2ccccc2C(=O)N1c1c[nH]c(=O)[nH]c1=O
inactive: [4] 95 % of control | [5] 93 % of control

c1ccc(C2=C(c3ccccc3)c3cccc4cccc2c34)cc1
inactive: [6] 100 % of control | dose: 100.0 mg/kg/injection, schedule: Q01DX009 (ip), vehicle: acetone 87 % of control | [7] 94 % of control | [8] 89 % of control | dose: 200.0 mg/kg/injection, schedule: Q01DX009 (ip), vehicle: acetone 96 % of control | [9] 97 % of control | [10] 94 % of control | dose: 400.0 mg/kg/injection, schedule: Q01DX009 (ip), vehicle: acetone 87 % of control | [11] 92 % of control

CCCCNC(=O)Nc1ccc(CC)cc1
inactive: [12] 98 % of control | [1] 97 % of control | [13] 102 % of control | [2] 102 % of control | [14] 96 % of control | [3] 100 % of control

O=[N+]([O-])c1ccc2c(c1)-c1[nH]c3ccccc3c1CS2
inactive: [6] 100 % of control | [8] 92 % of control | [10] 92 % of control

S=C(Nc1ccc(Cl)c(Cl)c1)SCc1ccco1
inactive: dose: 30.0 mg/kg/injection, schedule: Q04DX003 (ip), vehicle: saline with Tween-80 101 % of control | dose: 60.0 mg/kg/injection, schedule: Q04DX003 (ip), vehicle: saline with Tween-80 101 % of control | dose: 120.0 mg/kg/injection, schedule: Q04DX003 (ip), vehicle: saline with Tween-80 101 % of control

O=C(O)/C(=C/c1ccccc1)c1ccc2ccccc2c1Br
inactive: [12] 107 % of control | dose: 100.0 mg/kg/injection, schedule: Q04DX003 (ip), vehicle: other 100 % of control | [13] 95 % of control | dose: 200.0 mg/kg/injection, schedule: Q04DX003 (ip), vehicle: other 100 % of control | [14] 109 % of control | dose: 400.0 mg/kg/injection, schedule: Q04DX003 (ip), vehicle: other 95 % of control

CCCCCCCCCCCCC1CC2CCCCC2C2CCCCC12 (centres undefined)
inactive: dose: 100.0 mg/kg/injection, schedule: Q01DX001 (ip), vehicle: saline with Tween-80 95 % of control | dose: 200.0 mg/kg/injection, schedule: Q01DX001 (ip), vehicle: saline with Tween-80 97 % of control | dose: 400.0 mg/kg/injection, schedule: Q01DX001 (ip), vehicle: saline with Tween-80 89 % of control

Cc1nc(Cl)c(CO)c(CO)c1O
inactive: [15] 95 % of control | [16] 98 % of control | [4] 94 % of control | [17] 92 % of control | [5] 90 % of control | [1] 106 % of control

O=S(=O)(Nc1cccc(C(F)(F)F)c1)c1cc(Cl)c(Cl)cc1Cl
inactive: dose: 50.0 mg/kg/injection, schedule: Q01DX009 (ip), vehicle: carboxymethylcellulose (CMC) 86 % of control | dose: 75.0 mg/kg/injection, schedule: Q04DX003 (ip), vehicle: carboxymethylcellulose (CMC) 94 % of control | dose: 100.0 mg/kg/injection, schedule: Q04DX002 (ip), vehicle: carboxymethylcellulose (CMC) 100 % of control and 102 % of control | dose: 150.0 mg/kg/injection, schedule: Q04DX003 (ip), vehicle: carboxymethylcellulose (CMC) 94 % of control | dose: 200.0 mg/kg/injection, schedule: Q04DX002 (ip), vehicle: carboxymethylcellulose (CMC) 97 % of control | dose: 300.0 mg/kg/injection, schedule: Q04DX003 (ip), vehicle: carboxymethylcellulose (CMC) 100 % of control | dose: 400.0 mg/kg/injection, schedule: Q04DX002 (ip), vehicle: carboxymethylcellulose (CMC) 101 % of control and 91 % of control

CN(C)N(P(N)(Cl)(c1ccccc1)c1ccccc1)P(N)(Cl)(c1ccccc1)c1ccccc1
inactive: dose: 5.0 mg/kg/injection, schedule: Q01DX001 (ip), vehicle: steriod suspending solution 100 % of control | dose: 10.0 mg/kg/injection, schedule: Q01DX001 (ip), vehicle: steriod suspending solution 105 % of control | dose: 20.0 mg/kg/injection, schedule: Q01DX001 (ip), vehicle: steriod suspending solution 97 % of control | dose: 40.0 mg/kg/injection, schedule: Q01DX001 (ip), vehicle: steriod suspending solution 103 % of control | dose: 80.0 mg/kg/injection, schedule: Q01DX001 (ip), vehicle: steriod suspending solution 94 % of control

CCNP(=O)(CCl)NC12CC3CC(CC(C3)C1)C2 (centres undefined)
inactive: [17] 91 % of control | [12] 93 % of control | [13] 93 % of control

COC1OC(COC(c2ccccc2)(c2ccccc2)c2ccccc2)C(OS(=O)(=O)c2ccc(C)cc2)C(OC(=O)c2ccccc2)C1OC(=O)c1ccccc1 (centres undefined)
inactive: dose: 100.0 mg/kg/injection, schedule: Q04DX002 (ip), vehicle: saline with Tween-80 114 % of control | dose: 200.0 mg/kg/injection, schedule: Q04DX002 (ip), vehicle: saline with Tween-80 97 % of control | dose: 400.0 mg/kg/injection, schedule: Q04DX002 (ip), vehicle: saline with Tween-80 90 % of control

CC(C)(C#N)N=NC(C)(C)C#N
inactive: dose: 25.0 mg/kg/injection, schedule: Q01DX009 (ip), vehicle: alcohol 96 % of control | dose: 50.0 mg/kg/injection, schedule: Q01DX009 (ip), vehicle: alcohol 96 % of control | dose: 50.0 mg/kg/injection, schedule: Q04DX003 (ip), vehicle: alcohol 98 % of control | dose: 100.0 mg/kg/injection, schedule: Q04DX003 (ip), vehicle: alcohol 95 % of control

CN(C)C(C#N)c1c[nH]c2ccccc12 (centres undefined)
inactive: [15] 87 % of control | dose: 12.5 mg/kg/injection, schedule: Q04DX003 (ip), vehicle: Klucel (hydroxypropylcellulose) (HPC) 97 % of control | [16] 97 % of control | [4] 97 % of control | [5] 94 % of control

CC(=O)OC1CC2CCC1(S(=O)(=O)O)C2(C)C (centres undefined)
inactive: [18] 107 % of control | [7] 103 % of control | [19] 108 % of control | [9] 103 % of control | [20] 107 % of control | [11] 114 % of control

CC(C)N=Cc1ccccc1O.CC(C)N=Cc1ccccc1O.[Zn]
inactive: dose: 100.0 mg/kg/injection, schedule: Q01DX009 (ip), vehicle: saline sonified 91 % of control | [1] 88 % of control | dose: 200.0 mg/kg/injection, schedule: Q01DX009 (ip), vehicle: saline sonified 92 % of control | [2] 89 % of control | dose: 400.0 mg/kg/injection, schedule: Q01DX009 (ip), vehicle: saline sonified 96 % of control | [3] 93 % of control

Oc1ccc(CNCc2ccccc2)c2cccnc12
inactive: dose: 75.0 mg/kg/injection, schedule: Q01DX001 (ip), vehicle: saline 115 % of control

S=c1[nH]c(=S)c2[nH]c(=S)[nH]c2[nH]1
inactive: [12] 91 % of control | [13] 93 % of control | [14] 95 % of control

O=[N+]([O-])c1ccccc1/C=N/Nc1nnc(N/N=C/c2ccccc2[N+](=O)[O-])c2ccccc12
inactive: dose: 50.0 mg/kg/injection, schedule: Q01DX001 (ip), vehicle: carboxymethylcellulose (CMC) 104 % of control | dose: 100.0 mg/kg/injection, schedule: Q01DX001 (ip), vehicle: carboxymethylcellulose (CMC) 93 % of control | dose: 200.0 mg/kg/injection, schedule: Q01DX001 (ip), vehicle: carboxymethylcellulose (CMC) 98 % of control | dose: 400.0 mg/kg/injection, schedule: Q01DX001 (ip), vehicle: carboxymethylcellulose (CMC) 98 % of control

CCOC(=O)NC(CCl)NC(=O)OCC
inactive: [18] 95 % of control | [19] 101 % of control | [20] 103 % of control

O=c1ssc(=Nc2ccccc2)n1-c1ccccc1
inactive: dose: 100.0 mg/kg/injection, schedule: Q04DX003 (ip), vehicle: gum acacia 103 % of control | dose: 200.0 mg/kg/injection, schedule: Q04DX003 (ip), vehicle: gum acacia 104 % of control | dose: 400.0 mg/kg/injection, schedule: Q04DX003 (ip), vehicle: gum acacia 101 % of control
